From patent US20250034520A1, “INCREASING DEVELOPMENTAL POTENTIAL OF HUMAN PREIMPLANTATION EMBRYOS BY REDUCING GENETIC INSTABILITY, ANEUPLOIDIES AND CHROMOSOMAL MOSAICISM” (THE TRUSTEES OF COLUMBIA UNIVERSITY IN THE CITY OF NEW YORK, priority 2022, published 2025) come the findings set out here.

Common to all, as to format: cell-based
Assay [1] relates to human zygotes and parthenotes. The assay can be described thus: timing of mitotic entry in human zygotes and parthenotes. Particulars: for mitotic entry: human parthenotes. The procedure: (§1) Embryos, mouse and human, were cultured in Global Total (Life-Global) for the duration of the experiments and with added compounds as outlined below. Incubation in RNA polymerase inhibitors triptolide (1 mM) or alpha amanitin (20 mg/ml) was performed from the 2PN stage (day1) to day3 of human development. Incubation in aphidicolin was performed at 2 mM. […] Mirin was used at a concentration of 50 mM. Olaparib was used to inhibit PARP at a concentration of 10 mM. All experiments were conducted during incubation at 37° C. with 5% CO2 and 19-20% O2. Chemical stock solutions were prepared in DMSO at concentrations at least 1000× higher than the final concentration.
Artificial activation of human MII oocytes was performed using two pulses of 2.7 kV/cm at 50 ms using ECFG21 (Nepagene) in fusion buffer consisting of 0.25 M d-sorbitol buffer containing 0.1 mM calcium acetate, 0.5 mM magnesium acetate, 0.5 mM HEPES, and 1 mg ml^−1 fatty-acid-free BSA as previously described (Tachibana et al., 2013). Thereafter, oocytes were incubated for 3.5-4 h in 10 mg/ml puromycin, followed by a wash step and following culture in Global total.

In assay [2] the test system is mouse 2-cell embryos. As to the kind of experiment: single-cell sequencing chromosome content analysis, mouse 2-cell embryos. The procedure: as §1
(§2) Single cells from blastomeres were collected on the heated stage (Tokai Hit) of an Olympus IX71 inverted microscope equipped with Narishige micromanipulators and a zona pellucida laser (Hamilton-Thorne). Single nuclei were isolated from blastomeres by lysis and dissection of different nuclei using two […] diameter Piezo micropipettes and Holding pipette (Origio). Single embryo cells or nuclei were placed manually in single wells of a 96-well plate containing 9 ml of lysis buffer, prepared as a master mix of 798 ml H2O, 6 ml of 10 mg/mL Proteinase K solution (Sigma-Aldrich), and 96 ml 10× Single Cell Lysis and Fragmentation buffer (Sigma-Aldrich). Single cells/single nuclei were lysed by heating 96-well plates containing single cells/single nuclei at 50° C. for 1 hour, followed by incubation at 99° C. for four minutes using a PCR thermocycler. Single-cell/single-nuclei whole genome amplification (WGA) using degenerate oligo-nucleotide priming PCR (DOP-PCR) was performed using the SEQPLEX Enhanced DNA Amplification Kit (SEQXE, Sigma) according to the manufacturer's instructions. In addition, a modified version of the DOP-PCR protocol that allows inline indexing of WGA DNA was also applied. WGA DNA was subsequently processed for Illumina library sequencing preparation using standard TruSeq indexing methods via the NEBNext Ultra II DNA Library Prep Kit for Illumina (New England Biolabs). NEBNext Multiplex Oligos for Illumina (96 index primers) were used for four amplification cycles. Library DNA was quantified using Qubit dsDNA HS Assay Kit (Invitrogen, Carlsbad, CA, USA) and library size distribution was confirmed using a 2100 Bioanalyzer DNA 1000 Kit (Agilent, Santa Clara, CA, USA). A unimodal curve centered around 300-500 bp was scored as a successful library preparation. Subsequently, 30 mL of each pooled library was sent for sequencing at a concentration of 20 ng/ml. Mutiplex sequencing was performed using Illumina HiSeq 2500 single end indexed run (SR100) while targeting a coverage of approximately 1 million reads per cell/nuclei, sufficient for quantitative genome-wide copy number analysis.
(§3) Analysis of DNA sequencing data was performed as previously described (Baslan et al., 2015) with minor modifications as outlined below. Briefly, multiplex sequencing data were demultiplexed according to unique barcodes with reads assigned to their respective single-cell or single-nuclei. Unique reads were aligned to the reference human and mouse genome builds, hg19 and mm9, respectively. Each genome was partitioned into 5000 bins using a previously described algorithm (Varbin) that corrects for genome sequence mappability (Baslan et al., 2012; Navin et al., 2011). Uniquely mapped reads were sorted, indexed and subsequently counted within the partitioned genomic bins. For single-cell copy number inference, read count data were normalized genome-wide followed by CBS segmentation (Olshen et al., 2004) and transformed into integer copy number states using a least-squares fit approach (Baslan et al., 2015).

In assay [3] the test system is human embryos. The assay can be described thus: single-cell/single-nuclei sequencing chromosome content analysis, human embryos. The procedure: as §1, §2, §3
Copy number inference from single-nuclei sequencing data was performed similarly with the exception that bin read counts were initially processed using Kernel Density Estimation (KDE) resulting in two primary densities. […]

Setting [4] is: combined aphidicolin exposure and G2 checkpoint inhibition.
The mark [5] stands for this setting: aphidicolin and G2 checkpoint kinase inhibitor at 15.5 h.

Entries after “also recorded” stand apart in the source; their conditions may differ.

As to `C[C@@]1(CO)[C@H](O)CC[C@@]2(C)[C@H]1CC[C@H]1C[C@@H]3C[C@@]12CC[C@]3(O)CO` [aphidicolin], the mitotic entry result in assay [1] (incubation at 14 h) is “prevented mitotic entry”. For the same compound, the mitotic entry result in assay [1] (incubation at 15.5 h, compared with controls) was “allowed mitotic entry with a delay”. For the same compound, in assay [1] (human, incubation at 18 h), the mitotic entry timing entry is given as “no effects; also recorded: did not delay”. Further, in assay [2] (aphidicolin-treated), the “chromosomal abnormalities per cell” value turned out to be 0.62 per cell. This compound yielded a blastomeres showing aneuploidy in assay [2] (aphidicolin-treated, controls 98% normal) of 33%. The same compound registered an aneuploidies per cell in assay [2] (both aphidicolin and G2 checkpoint inhibitor) of 2.1 per cell. Moreover, the blastomeres showing aneuploidy in assay [2] (combination of aphidicolin and G2 checkpoint inhibition) was found to be 64.5%. For the same compound, in assay [2] (setting [4]), the “chromosomes with aneuploidies per cell” value is recorded as 2 chromosomes per cell and the “euploid mouse 2-cell embryos” value was 35.5%. The compound also yielded a chromosomal breaks identified in assay [3] (4 2PN zygotes, aphidicolin and CHK1 inhibitor at 18 h post ICSI) of 7. In addition, the aneuploidy result in assay [3] (addition of aphidicolin to CHK1 inhibition in G2 phase) is listed as “further amplified”. Further, in assay [3] (setting [5]), the “chromosomes with one or more segmental copy-number transitions, share” value turned out to be 27%; the “independent break points per embryo, average” value turned out to be 51; the “whole-chromosome losses, share of aneuploid chromosomes in micronuclei” value is recorded as 73%. Also, the total break sites in assay [3] (aphidicolin and G2 checkpoint kinase inhibitor at 15.5 h, 21 micronuclei from 4 zygotes) came out at 331. In assay [3] (setting [4]), the human embryos aneuploid result is recorded as “all”.
